Results published in publication PMC2956004 (Bioorganic & medicinal chemistry, 2010).

Molecular target: recombinant HCV NS5B (genotype 1b) NS5BCΔ21 (Hepatitis C virus genotype 1b, UniProt P26663)
Assay: in vitro NS5B RNA dependent RNA polymerase
Type: biochemical
Conditions: Supplementary data, Table S1

| SMILES | NS5B inhibitory activity (in words) |
| --- | --- |
| O=C(O)CN1C(=O)CSC1=S [2-(4-oxo-2-thioxothiazolidin-3-yl)acetic acid] | either inactive or poorly active |
| O=C(O)CN1C(=O)C(=Cc2ccccc2)SC1=S [2-(5-benzylidene-4-oxo-2-thioxothiazolidin-3-yl)acetic acid] | either inactive or poorly active |
| CCN1C(=O)C(=Cc2ccc(Cl)cc2Cl)SC1=S [5-(2,4-dichlorobenzylidene)-3-ethyl-2-thioxothiazolidin-4-one] | either inactive or poorly active |
